Experimental data from patent US4087561A, “Control of nitrosamine formation in nitride cured meat with 1,2,3,4-tetrahydro-quinoline compounds” (Canada Packers Limited, priority 1975, dated 1978).

Experiments:
[1] = Volatile nitrosamine content of cook-out fat from fried nitrite-cured bacon slices streaked with test compound in soya oil; settings: for nitrosamine content of the fried meat: inferred from cook-out fat content; for nitrosamine content of cook-out fat from the test sample: 100 ppm on bacon slices, control sample 15 ppb
Description: A portion of the foregoing product was dissolved in winterized soya oil to provide a 4.5% concentration and the resulting solution was streaked on bacon slices, which had undergone a conventional nitrite cure and plant processing, in quantities providing levels of 1,2,3,4-tetrahydro-2,2,4-trimethyl-6-ethoxyquinoline of from 5 ppm to 100 ppm in the meat. Control slices of bacon were streaked with the oil alone. The bacon slices were fried under standardized conditions and the cook-out fat was analyzed for volatile nitrosamine content.
Since the analytical means available are not accurate below about 3 ppb (parts per billion), it will be seen that at levels of about 20 parts per million and greater of the test compound in the meat the amount of nitrosamines in the cook-out fat was reduced below the accurately determinable level.
A portion of the 1,2,3,4-tetrahydro-2,4-diethyl-2-methyl-6-methoxyquinolineprepared as above was dissolved in winterized soya oil (4.5% concentration) and the resulting solution was streaked on nitrite cured, plant processed bacon slices at a level of 100 ppm in the meat. Control slices of bacon received oil alone. The bacon slices were fried and the cook-out fat was analyzed for volatile nitrosamine content as in Example 1.

[2] = Volatile nitrosamines in cook-out fat of fried bacon cured with pumping pickle containing test compound; settings: 150 mg = 50 ppm, in Tween 60, control sample 21 ppb
Text: This example is representative of the use of compounds of the general formula given above in a pumping pickle.
A single pork belly (13.2 lb) was cut along the short dimension into two equal portions. Production pickle (300g), of a composition which has been generally described above, was pumped into one portion to be used as control. The other half was pumped with the same production pickle (300g) to which 1,2,3,4-tetrahydro-2,2,4-trimethyl-6-ethoxyquinoline, prepared as described in Example 1, (150 mg .ident. 50 ppm) in Tween 60 (500 mg) had been dispersed. Both portions were subsequently smoked, chilled, sliced, and packaged normally. The samples were then analyzed for nitrite content. The amount of nitrite found just before frying was 75 ppm in the control sample and 73 ppm in the test sample.
Each sample of the bacon was then fried under standard frying conditions and the cook-out fat analyzed for volatile nitrosamines.

[3] = Control of nitrosamine formation in nitrite cured meat (general statements)
[4] = Stability of the compound; format: physicochemical
[5] = cited from earlier work

CCOc1ccc2c(c1)C(C)CC(C)(C)N2 (stereo not shown) [1,2,3,4-tetrahydro-2,2,4-trimethyl-6-ethoxyquinoline]
Nitrosamines in cook-out fat, test product ([1]; Table I sample 1, 100 ppm in meat, control product 29 ppb): 0 ppb
Nitrosamines in cook-out fat, test product ([1]; Table I sample 2, 80 ppm in meat, control product 19 ppb): 2 ppb
Nitrosamines in cook-out fat, test product ([1]; Table I sample 3, 40 ppm in meat, control product 19 ppb): 3 ppb
Nitrosamines in cook-out fat, test product ([1]; Table I sample 4, 20 ppm in meat, control product 19 ppb): 1 ppb
Nitrosamines in cook-out fat, test product ([1]; Table I sample 5, 10 ppm in meat, control product 19 ppb): 0 ppb
Nitrosamines in cook-out fat, test product ([1]; Table I sample 6, 10 ppm in meat, control product 18 ppb): 2 ppb
Nitrosamines in cook-out fat, test product ([1]; Table I sample 7, 5 ppm in meat, control product 19 ppb): 5 ppb
Nitrosamines in cook-out fat, test product ([1]; Table I sample 8, 20 ppm in meat, control product 31 ppb): 0 ppb
Nitrosamines in cook-out fat, test product ([1]; Table I sample 9, 10 ppm in meat, control product 31 ppb): 10 ppb
Nitrosamines in cook-out fat, test product ([1]; Table I sample 10, 5 ppm in meat, control product 31 ppb): 22 ppb
Nitrosamines in cook-out fat, test product ([1]; Table I sample 11, 20 ppm in meat, control product 36 ppb): 5 ppb
Nitrosamines in cook-out fat, test product ([1]; Table I sample 12, 10 ppm in meat, control product 36 ppb): 8 ppb
Nitrosamines in cook-out fat, test product ([1]; Table I sample 13, 5 ppm in meat, control product 36 ppb): 6 ppb
Nitrosamines in cook-out fat, test product ([1]; Table I sample 14, 100 ppm in meat, control product 49 ppb): 1 ppb
Nitrosamines in cook-out fat, test product ([1]; Table I sample 15, 20 ppm in meat, control product 39 ppb): 3 ppb
Nitrosamines in cook-out fat, test product ([1]; Table I sample 16, 10 ppm in meat, control product 39 ppb): 15 ppb
Nitrosamines in cook-out fat, test product ([1]; Table I sample 17, 20 ppm in meat, control product 25 ppb): 2 ppb
Nitrosamines in cook-out fat, test product ([1]; Table I sample 18, 10 ppm in meat, control product 25 ppb): 4 ppb
nitrosamine content of the fried meat [1]: virtually eliminated
reduction in the amount of nitrosamines formed ([1]; lesser amounts (below about 20 ppm in meat)): significant reduction in the amount of nitrosamines formed, in some instances reducing the nitrosamines below the accurately detectable level
amount of nitrosamines in the cook-out fat ([1]; levels of about 20 ppm and greater in meat, reduced below the accurately determinable level (about 3 ppb)): below 3 ppb
volatile nitrosamines in cook-out fat of test sample [2]: did not show any detectable nitrosamine
effectiveness in the control of nitrosamines in nitrite cured meats, compared with ethoxyquin [3]: equally effective
stability at room temperature ([4]; crystalline solid, room temperature): quite stable at room temperature

CCOc1ccc2c(c1)C(CC)CC(C)(CC)N2 (stereo not shown) [1,2,3,4-tetrahydro-2,4-diethyl-2-methyl-6-ethoxyquinoline]
nitrosamine content of cook-out fat from the test sample [1]: zero

CCC1CC(C)(CC)Nc2ccc(OC)cc21 (stereo not shown) [1,2,3,4-tetrahydro-2,4-diethyl-2-methyl-6-methoxyquinoline]
Nitrosamines in cook-out fat, test product ([1]; Table II sample 1, 100 ppm in meat, control product 51 ppb): 2 ppb
Nitrosamines in cook-out fat, test product ([1]; Table II sample 2, 100 ppm in meat, control product 15 ppb): 0 ppb
nitrosamine content of the cook-out fat ([1]; each test sample of Table II, 100 ppm in meat, reduced below the accurately detectable level): < 3 ppb
nitrosamine content of the fried meat [1]: virtually free of such substances

CCOc1ccc2c(c1)C(C)CC(C)(CC(C)C)N2 (stereo not shown) [1,2,3,4-tetrahydro-2,4-dimethyl-2-isobutyl-6-ethoxyquinoline]
nitrosamine content of cook-out fat from the test sample [1]: 0.6 ppb

COc1ccc2c(c1)CCCN2 [1,2,3,4-tetrahydro-6-methoxyquinoline]
nitrosamine content of cook-out fat from the test sample [1]: 0.6 ppb

O=NN1CCCC1 [N-nitrosopyrrolidine]
carcinogenicity in tests on experimental animals [5]: carcinogenic

CN(C)N=O [dimethylnitrosamine]
carcinogenicity in tests on experimental animals [5]: carcinogenic

CCOc1ccc2c(c1)C(C)=CC(C)(C)N2 [ethoxyquin, 1,2-dihydro-2,2,4-trimethyl-6-ethoxyquinoline, reference compound]
stability in the presence of air (darkening) ([4]; oily yellow liquid, presence of air): rather quickly turns dark in the presence of air
